Measured values as given in publication PMC6934184, “Selective DNA-PKcs inhibition extends the therapeutic index of localized radiotherapy and chemotherapy” (The Journal of Clinical Investigation, 2019).

Target: T1, ULK2 (Homo sapiens, UniProt Q8IYT8)
T1 construct: purchased Thermo Fisher Scientific (Life Technologies) SelectScreen
Assay: SelectScreen LanthaScreen
Type: binding
Settings: read-out: % displacement
Outline: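 NU5455 was profiled across the SelectScreen Broad panel of kinase activity and binding assays. Z'LYTE reactions such as CSF1R ran at apparent Km ATP, while the Adapta CAMK1 assay used ATP listed as 10. Values are given as percent.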

T1 sequence (Q8IYT8 whole entry): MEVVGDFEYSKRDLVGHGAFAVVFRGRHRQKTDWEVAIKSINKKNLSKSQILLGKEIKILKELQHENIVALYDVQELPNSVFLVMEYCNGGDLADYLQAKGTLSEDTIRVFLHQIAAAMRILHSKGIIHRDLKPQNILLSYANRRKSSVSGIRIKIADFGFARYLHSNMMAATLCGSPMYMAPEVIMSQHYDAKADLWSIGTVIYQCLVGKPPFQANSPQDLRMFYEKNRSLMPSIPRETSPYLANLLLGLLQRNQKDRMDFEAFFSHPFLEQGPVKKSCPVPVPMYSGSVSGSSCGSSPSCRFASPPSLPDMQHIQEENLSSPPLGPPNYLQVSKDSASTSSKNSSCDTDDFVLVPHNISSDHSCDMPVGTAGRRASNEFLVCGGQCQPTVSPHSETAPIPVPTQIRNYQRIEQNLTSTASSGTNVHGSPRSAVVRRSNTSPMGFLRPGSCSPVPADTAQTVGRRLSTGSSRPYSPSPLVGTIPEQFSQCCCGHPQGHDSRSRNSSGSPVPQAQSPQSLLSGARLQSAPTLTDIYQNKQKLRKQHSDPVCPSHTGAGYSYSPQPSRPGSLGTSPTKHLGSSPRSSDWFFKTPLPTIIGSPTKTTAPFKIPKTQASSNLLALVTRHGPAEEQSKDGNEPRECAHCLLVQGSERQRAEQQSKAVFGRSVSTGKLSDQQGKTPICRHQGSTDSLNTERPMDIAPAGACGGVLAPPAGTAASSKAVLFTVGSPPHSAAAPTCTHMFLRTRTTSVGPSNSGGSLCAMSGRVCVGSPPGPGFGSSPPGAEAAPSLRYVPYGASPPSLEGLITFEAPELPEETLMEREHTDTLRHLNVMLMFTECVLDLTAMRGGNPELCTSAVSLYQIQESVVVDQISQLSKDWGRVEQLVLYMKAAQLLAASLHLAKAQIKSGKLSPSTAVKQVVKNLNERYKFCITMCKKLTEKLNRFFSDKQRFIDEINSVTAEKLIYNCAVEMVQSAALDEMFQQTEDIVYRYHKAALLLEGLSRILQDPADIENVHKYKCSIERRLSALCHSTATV

`CN(C(=O)CN1CCOCC1)c1ccc2sc3c(-c4cccc5c(=O)cc(N6CC7CCC(C6)O7)oc45)cccc3c2c1` [NU5455] gave an inhibition at 1 µM of 0.9%.
